Source: patent US20110039721A1, “METHOD FOR PREDICTION ABOUT CARCINOGENICITY OF SUBSTANCE IN RODENT” (Chemicals Evaluation and Research Institute, priority 2007, published 2011)
Where two headings read alike, the source gives them in different places.

Tests used:
[1] = test system: rodent; details: cited from earlier work
[2] = test system: mRNA expressed from the genes (A) to (D) in rat liver; assay: Behavior of genes (mRNA expression level, oligo-DNA microarray) in rat liver after 28-day oral administration; format: in vivo
Protocol: A test solution was prepared by dissolving each of the carcinogens and the non-carcinogens shown in Tables 2 to 6 in the corresponding solvent shown in Tables 2 to 6. Each of the thus prepared test solutions and the solvents used for the preparation was administered by oral gavage to rats in each group. As the rats, male rats (F344 SPF rats) at 5 weeks of age obtained from Charles River Laboratories Japan, Inc. were used. The animals were divided into groups, each containing four individuals. The volume of the solvent administered to the vehicle control group was set to the same volume as that of the test solution administered to the carcinogen administration group or the non-carcinogen administration group. The administration of the test solution or the solvent was performed once daily for 28 days. Apiece was excised from the liver of each of the rats after a lapse of 28 days from the initiation of the administration, and the total RNA was extracted and purified.
The expression level of mRNA was compared between each of the chemical substance administration groups and the corresponding vehicle control group, and genes that satisfy the requirements described in (A) to (D) were selected, respectively.
The case where the expression level of mRNA in the carcinogen administration group or the non-carcinogen administration group is 1.5 times or more or 1/1.5 or less of the expression level of the corresponding mRNA expressed in the control group was determined to be significant. In this connection, the determination as to whether or not the change is significant was performed by taking into consideration the direction of increase or decrease in the expression level. In the case where the direction of increase or decrease is different as compared with the case where another carcinogen was administered, the change was determined to be not significant.

[3] = classification of the substance (C+/C−)
[4] = gene group (A), Unigene No. Rn.167075
[5] = gene group (C), Unigene No. Rn.120914

## O=C(c1ccccc1)C(O)c1ccccc1 (stereo not drawn) [TS038, Benzoin]
[1]; [3]
  Carcinogenicity: C−
[2]; gene group (A), Unigene No. Rn.144554
  Behavior of gene caused by administration of chemical substance, Gene No. 4846: −
[2]; [4]
  Behavior of gene caused by administration of chemical substance, Gene No. 2026: +
  Behavior of gene caused by administration of chemical substance, Gene No. 4218: −
[2]; gene group (A), Unigene No. Rn.5834
  Behavior of gene caused by administration of chemical substance, Gene No. 6182: −
[2]; gene group (A), Unigene No. Rn.9836
  Behavior of gene caused by administration of chemical substance, Gene No. 5600: −
[2]; gene group (B), Unigene No. Rn.1430
  Behavior of gene caused by administration of chemical substance, Gene No. 1494: −
[2]; gene group (B), Unigene No. Rn.19329
  Behavior of gene caused by administration of chemical substance, Gene No. 2045: −
[2]; gene group (B), Unigene No. Rn.21240
  Behavior of gene caused by administration of chemical substance, Gene No. 2203: −
[2]; gene group (C), Unigene No. Rn.106184
  Behavior of gene caused by administration of chemical substance, Gene No. 533: −
[2]; gene group (C), Unigene No. Rn.108075
  Behavior of gene caused by administration of chemical substance, Gene No. 725: −
[2]; gene group (C), Unigene No. Rn.11766
  Behavior of gene caused by administration of chemical substance, Gene No. 1163: −
[2]; gene group (C), Unigene No. Rn.118529
  Behavior of gene caused by administration of chemical substance, Gene No. 4973: +
[2]; gene group (C), Unigene No. Rn.119024
  Behavior of gene caused by administration of chemical substance, Gene No. 4095: +
[2]; [5]
  Behavior of gene caused by administration of chemical substance, Gene No. 1334: −
  Behavior of gene caused by administration of chemical substance, Gene No. 6620: −
[2]; gene group (C), Unigene No. Rn.123063
  Behavior of gene caused by administration of chemical substance, Gene No. 6303: +
[2]; gene group (C), Unigene No. Rn.143213
  Behavior of gene caused by administration of chemical substance, Gene No. 5878: −
[2]; gene group (C), Unigene No. Rn.144946
  Behavior of gene caused by administration of chemical substance, Gene No. 1131: −
[2]; gene group (C), Unigene No. Rn.14744
  Behavior of gene caused by administration of chemical substance, Gene No. 1562: −
[2]; gene group (C), Unigene No. Rn.1647
  Behavior of gene caused by administration of chemical substance, Gene No. 1741: −
[2]; gene group (C), Unigene No. Rn.164817
  Behavior of gene caused by administration of chemical substance, Gene No. 893: −
[2]; gene group (C), Unigene No. Rn.167685
  Behavior of gene caused by administration of chemical substance, Gene No. 6026: +
[2]; gene group (C), Unigene No. Rn.185941
  Behavior of gene caused by administration of chemical substance, Gene No. 154: +
[2]; gene group (C), Unigene No. Rn.18728
  Behavior of gene caused by administration of chemical substance, Gene No. 1993: +
[2]; gene group (C), Unigene No. Rn.201760
  Behavior of gene caused by administration of chemical substance, Gene No. 813: −
[2]; gene group (C), Unigene No. Rn.23969
  Behavior of gene caused by administration of chemical substance, Gene No. 2494: −
[2]; gene group (C), Unigene No. Rn.24561
  Behavior of gene caused by administration of chemical substance, Gene No. 2546: +
[2]; gene group (C), Unigene No. Rn.43232
  Behavior of gene caused by administration of chemical substance, Gene No. 3776: −
[2]; gene group (C), Unigene No. Rn.4620
  Behavior of gene caused by administration of chemical substance, Gene No. 3929: −
[2]; gene group (C), Unigene No. Rn.9757
  Behavior of gene caused by administration of chemical substance, Gene No. 1119: +
[2]; gene group (C), Unigene No. Rn.9779
  Behavior of gene caused by administration of chemical substance, Gene No. 6742: −
[2]; gene group (C), Unigene No. Rn.9862
  Behavior of gene caused by administration of chemical substance, Gene No. 5634: +
[2]; gene group (D), Unigene No. Rn.9939
  Behavior of gene caused by administration of chemical substance, Gene No. 5726: −

## ClC(Cl)Cl [TS056, Chloroform]
[1]; [3]
  Carcinogenicity: C+
[2]; rat, in vivo
  Behavior of gene caused by administration of chemical substance, Gene No. 154: +
  Behavior of gene caused by administration of chemical substance, Gene No. 533: +
  Behavior of gene caused by administration of chemical substance, Gene No. 725: +
  Behavior of gene caused by administration of chemical substance, Gene No. 813: +
  Behavior of gene caused by administration of chemical substance, Gene No. 893: +
  Behavior of gene caused by administration of chemical substance, Gene No. 1119: +
  Behavior of gene caused by administration of chemical substance, Gene No. 1131: +
  Behavior of gene caused by administration of chemical substance, Gene No. 1163: +
  Behavior of gene caused by administration of chemical substance, Gene No. 1334: +
  Behavior of gene caused by administration of chemical substance, Gene No. 1494: +
  Behavior of gene caused by administration of chemical substance, Gene No. 1562: +
  Behavior of gene caused by administration of chemical substance, Gene No. 1741: +
  Behavior of gene caused by administration of chemical substance, Gene No. 1993: +
  Behavior of gene caused by administration of chemical substance, Gene No. 2026: +
  Behavior of gene caused by administration of chemical substance, Gene No. 2045: −
  Behavior of gene caused by administration of chemical substance, Gene No. 2203: −
  Behavior of gene caused by administration of chemical substance, Gene No. 2494: +
  Behavior of gene caused by administration of chemical substance, Gene No. 2546: +
  Behavior of gene caused by administration of chemical substance, Gene No. 3776: +
  Behavior of gene caused by administration of chemical substance, Gene No. 3929: +
  Behavior of gene caused by administration of chemical substance, Gene No. 4095: +
  Behavior of gene caused by administration of chemical substance, Gene No. 4218: −
  Behavior of gene caused by administration of chemical substance, Gene No. 4846: −
  Behavior of gene caused by administration of chemical substance, Gene No. 4973: +
  Behavior of gene caused by administration of chemical substance, Gene No. 5600: −
  Behavior of gene caused by administration of chemical substance, Gene No. 5634: +
  Behavior of gene caused by administration of chemical substance, Gene No. 5726: −
  Behavior of gene caused by administration of chemical substance, Gene No. 5878: +
  Behavior of gene caused by administration of chemical substance, Gene No. 6026: +
  Behavior of gene caused by administration of chemical substance, Gene No. 6182: −
  Behavior of gene caused by administration of chemical substance, Gene No. 6303: +
  Behavior of gene caused by administration of chemical substance, Gene No. 6620: +
  Behavior of gene caused by administration of chemical substance, Gene No. 6742: +

## O=[N+]([O-])c1ccc2ccc3cccc4ccc1c2c34 [TS064, 1-Nitropyrene]
[1]; classification C+/C−
  Carcinogenicity: C+
[2]; Gene No. 154, Rn.185941, group (C)
  Behavior of gene caused by administration of chemical substance: −
[2]; Gene No. 533, Rn.106184, group (C)
  Behavior of gene caused by administration of chemical substance: −
[2]; Gene No. 725, Rn.108075, group (C)
  Behavior of gene caused by administration of chemical substance: −
[2]; Gene No. 813, Rn.201760, group (C)
  Behavior of gene caused by administration of chemical substance: −
[2]; Gene No. 893, Rn.164817, group (C)
  Behavior of gene caused by administration of chemical substance: −
[2]; Gene No. 1119, Rn.9757, group (C)
  Behavior of gene caused by administration of chemical substance: −
[2]; Gene No. 1131, Rn.144946, group (C)
  Behavior of gene caused by administration of chemical substance: −
[2]; Gene No. 1163, Rn.11766, group (C)
  Behavior of gene caused by administration of chemical substance: −
[2]; Gene No. 1334, Rn.120914, group (C)
  Behavior of gene caused by administration of chemical substance: −
[2]; Gene No. 1494, Rn.1430, group (B)
  Behavior of gene caused by administration of chemical substance: −
[2]; Gene No. 1562, Rn.14744, group (C)
  Behavior of gene caused by administration of chemical substance: −
[2]; Gene No. 1741, Rn.1647, group (C)
  Behavior of gene caused by administration of chemical substance: −
[2]; Gene No. 1993, Rn.18728, group (C)
  Behavior of gene caused by administration of chemical substance: −
[2]; Gene No. 2026, Rn.167075, group (A)
  Behavior of gene caused by administration of chemical substance: −
[2]; Gene No. 2045, Rn.19329, group (B)
  Behavior of gene caused by administration of chemical substance: −
[2]; Gene No. 2203, Rn.21240, group (B)
  Behavior of gene caused by administration of chemical substance: +
[2]; Gene No. 2494, Rn.23969, group (C)
  Behavior of gene caused by administration of chemical substance: −
[2]; Gene No. 2546, Rn.24561, group (C)
  Behavior of gene caused by administration of chemical substance: −
[2]; Gene No. 3776, Rn.43232, group (C)
  Behavior of gene caused by administration of chemical substance: −
[2]; Gene No. 3929, Rn.4620, group (C)
  Behavior of gene caused by administration of chemical substance: −
[2]; Gene No. 4095, Rn.119024, group (C)
  Behavior of gene caused by administration of chemical substance: −
[2]; Gene No. 4218, Rn.167075, group (A)
  Behavior of gene caused by administration of chemical substance: −
[2]; Gene No. 4846, Rn.144554, group (A)
  Behavior of gene caused by administration of chemical substance: −
[2]; Gene No. 4973, Rn.118529, group (C)
  Behavior of gene caused by administration of chemical substance: −
[2]; Gene No. 5600, Rn.9836, group (A)
  Behavior of gene caused by administration of chemical substance: −
[2]; Gene No. 5634, Rn.9862, group (C)
  Behavior of gene caused by administration of chemical substance: −
[2]; Gene No. 5726, Rn.9939, group (D)
  Behavior of gene caused by administration of chemical substance: −
[2]; Gene No. 5878, Rn.143213, group (C)
  Behavior of gene caused by administration of chemical substance: −
[2]; Gene No. 6026, Rn.167685, group (C)
  Behavior of gene caused by administration of chemical substance: −
[2]; Gene No. 6182, Rn.5834, group (A)
  Behavior of gene caused by administration of chemical substance: −
[2]; Gene No. 6303, Rn.123063, group (C)
  Behavior of gene caused by administration of chemical substance: −
[2]; Gene No. 6620, Rn.120914, group (C)
  Behavior of gene caused by administration of chemical substance: −
[2]; Gene No. 6742, Rn.9779, group (C)
  Behavior of gene caused by administration of chemical substance: −
